This passage reports IC50 and Kb results from patent publication US8906911B2, “Chemokine receptor antagonists” (AbbVie Inc., priority 2012, dated 2014).

The target of one assay is human CCR2B (Homo sapiens (Human), UniProt P41597). Briefly: Inhibition of native agonist (human MCP-1)-induced intracellular calcium release, calcium flux assay in CHO cells expressing human CCR2B and Gα16. The assay is classed as cell-based. Conditions: for IC50: read-out: hCCR2B IC50; for Kb: read-out: hCCR2B Kb. The source says: (§1) CHO cells expressing human CCR2B were generated as follows. cDNA for human CCR2B (cloned from human blood) was cloned into plasmid pcDNA3.1 (from Invitrogen). The resulting plasmids were separately transfected into CHO cells expressing human Gα16 (from Molecular Devices). […] CHO cells expressing rat CCR2 were generated as follows. cDNA for rat CCR2 (cloned from rat macrophage) was cloned into plasmid pEF-flag (from Chinese Academy of Science). The resulting plasmids were transfected into CHO cells expressing human Gα16 (from […]).
(§2) Inhibition of Native Agonist-Induced Intracellular Calcium Release in Cells Expressing hCCR2B or rCCR2
(§3) Calcium flux assays were performed in CHO cells expressing human CCR2B and Gα16 coupling protein, or rat CCR2 and Gα16 coupling protein. All compounds were dissolved in DMSO and assays run at a final DMSO concentration of 0.25% (v/v). Human MCP-1 was purchased from PeproTech and used at a final assay concentration of 2 nM, while rat MCP-1 was purchased from R&D and used at a final assay concentration of 4 nM. Assays with cells expressing human CCR2B were performed with human MCP-1, while assays with cells expressing rat CCR2 were performed with rat MCP-1.
(§4) Briefly, cells were cultured overnight in a microtiter plate at 8000 per well. The next day, the resultant adherent cells were incubated in assay buffer (20 mM HEPES, pH 7.4, 0.1% bovine serum albumin, and 2.5 mM probenocid in Hank's Buffered Saline Solution) containing Calcium 4 dye (Molecular Probes) at 37° C. for 60 minutes. Calcium flux assays were performed on a FLIPR^Tetra instrument (Molecular Devices) by adding compound to the cells followed by addition of native agonist and measuring the change in fluorescence as a function of time. Maximal and minimal values for fluorescence were determined using native agonist (2 nM MCP-1) for human or rat CCR2, or buffer addition, respectively. Fluorescence values were used to calculate the percent inhibition at a given compound concentration and the data fit to a sigmoidal curve in a semi-log plot to determine IC50 values. The Kb value is calculated as Kb=IC50/(1+[agonist]/EC50), where [agonist] is the concentration of agonist used and EC50 is the agonist potency determined in the previous experiments. Mean Kb values and IC50 of the compounds assayed are reported in Table 2 and Table 3 respectively.
For orientation: A change in cytosolic calcium serves as a functional read-out for many receptors and channels.

The next assay addresses rat CCR2 (Rattus norvegicus (Rat), UniProt O55193). Briefly: Inhibition of native agonist (rat MCP-1)-induced intracellular calcium release, calcium flux assay in CHO cells expressing rat CCR2 and Gα16. To be noted: read-out: rCCR2 Kb. In kind it is cell-based.
Excerpt: as §1, §2, §3, §4

Where two headings read alike, the source gives them in different places. Where only a bound is given, the exact number is not on record here.

Chain of human CCR2B (P41597 other isoform, or with tags, fused parts or gaps): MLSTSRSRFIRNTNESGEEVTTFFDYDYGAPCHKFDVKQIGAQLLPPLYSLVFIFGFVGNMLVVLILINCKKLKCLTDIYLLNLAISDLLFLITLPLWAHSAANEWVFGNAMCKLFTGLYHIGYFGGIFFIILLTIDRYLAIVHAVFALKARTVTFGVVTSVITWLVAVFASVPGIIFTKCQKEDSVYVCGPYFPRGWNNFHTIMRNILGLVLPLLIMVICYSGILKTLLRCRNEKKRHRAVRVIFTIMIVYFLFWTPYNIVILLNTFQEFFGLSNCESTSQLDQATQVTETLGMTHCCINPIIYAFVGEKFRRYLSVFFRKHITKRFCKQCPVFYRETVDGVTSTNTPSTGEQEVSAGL
Chain of rat CCR2 (O55193 whole entry): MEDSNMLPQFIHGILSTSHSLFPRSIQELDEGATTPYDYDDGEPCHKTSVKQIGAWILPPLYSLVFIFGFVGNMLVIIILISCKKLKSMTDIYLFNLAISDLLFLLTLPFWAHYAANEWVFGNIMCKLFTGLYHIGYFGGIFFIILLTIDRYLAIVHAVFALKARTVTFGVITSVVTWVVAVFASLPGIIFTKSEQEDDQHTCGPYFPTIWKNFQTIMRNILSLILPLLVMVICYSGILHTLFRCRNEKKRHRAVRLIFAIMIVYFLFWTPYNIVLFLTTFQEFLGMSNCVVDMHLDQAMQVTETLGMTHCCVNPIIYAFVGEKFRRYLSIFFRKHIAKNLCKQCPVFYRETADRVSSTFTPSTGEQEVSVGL

As to `CO[C@@H]1COCC[C@@H]1N[C@@H]1C[C@H]2CCC[C@@]2(C(=O)N2C[C@@H]3C[C@H]2CN3c2ncccc2C(F)(F)F)C1` [Example 33, 1,5-anhydro-2,3-dideoxy-4-O-methyl-3-{[(2R,3aR,6aR)-3a-({(1S,4S)-5-[3-(trifluoromethyl)pyridin-2-yl]-2,5-diazabicyclo[2.2.1]hept-2-yl}carbonyl)octahydropentalen-2-yl]amino}-D-erythro-pentitol], at human CCR2B, the IC50 came to 25000 nM and the Kb was greater than 6140 nM. For the same compound, on rat CCR2, the Kb is greater than 1330 nM.
Regarding `CO[C@@H]1COCC[C@@H]1N[C@@H]1C[C@H]2CCC[C@@]2(C(=O)N2C[C@H]3C[C@@H]2CN3c2cc(C(F)(F)F)ccn2)C1` [Example 3, 1,5-anhydro-2,3-dideoxy-4-O-methyl-3-{[(2R,3aR,6aR)-3a-({(1R,4R)-5-[4-(trifluoromethyl)pyridin-2-yl]-2,5-diazabicyclo[2.2.1]hept-2-yl}carbonyl)octahydropentalen-2-yl]amino}-D-erythro-pentitol], the IC50 on human CCR2B (calcium flux, human MCP-1 2 nM) was 2500 nM. Besides, the values for the Kb on human CCR2B and on rat CCR2 were 614 nM and 694 nM, respectively.
Consider `CO[C@@H]1COCC[C@@H]1N[C@@H]1C[C@H]2CCC[C@@]2(C(=O)N2C[C@@H]3C[C@H]2CN3c2ccc(Cl)c(C(F)(F)F)c2)C1` [Example 46, 1,5-anhydro-3-{[(2R,3aR,6aR)-3a-({(1S,4S)-5-[4-chloro-3-(trifluoromethyl)phenyl]-2,5-diazabicyclo[2.2.1]hept-2-yl}carbonyl)octahydropentalen-2-yl]amino}-2,3-dideoxy-4-O-methyl-D-erythro-pentitol], for which the Kb came out at 4 nM on human CCR2B and 3 nM on rat CCR2.
As for `CO[C@@H]1COCC[C@@H]1N[C@@H]1C[C@H]2CCC[C@@]2(C(=O)N2C[C@@H]3C[C@H]2CN3c2nccc(C(F)(F)F)c2F)C1` [Example 21, 1,5-anhydro-2,3-dideoxy-3-{[(2R,3aR,6aR)-3a-({(1S,4S)-5-[3-fluoro-4-(trifluoromethyl)pyridin-2-yl]-2,5-diazabicyclo[2.2.1]hept-2-yl}carbonyl)octahydropentalen-2-yl]amino}-4-O-methyl-D-erythro-pentitol], the IC50 on human CCR2B (calcium flux, human MCP-1 2 nM) was found to be 821 nM. The figures for the Kb on human CCR2B and on rat CCR2 were 201 nM and 91 nM, respectively.
On to `O=C(N1C[C@@H]2C[C@H]1CN2c1cc(C(F)(F)F)ccn1)[C@@]12CCC[C@@H]1C[C@@H](N1CCOCC1)C2` [Example 59, [(2R,3aR,6aR)-2-(morpholin-4-yl)hexahydropentalen-3a(1H)-yl]{(1S,4S)-5-[4-(trifluoromethyl)pyridin-2-yl]-2,5-diazabicyclo[2.2.1]hept-2-yl}methanone], for which, on human CCR2B, the IC50 was 830 nM and the Kb was 204 nM. Also, the Kb on rat CCR2 was determined as 533 nM.
Take `CO[C@@H]1COCC[C@@H]1N[C@@H]1C[C@H]2CCC[C@@]2(C(=O)N2C[C@@H]3C[C@H]2CN3c2cccc(C(F)(F)F)c2C)C1` [Example 23, 1,5-anhydro-2,3-dideoxy-4-O-methyl-3-{[(2R,3aR,6aR)-3a-({(1S,4S)-5-[2-methyl-3-(trifluoromethyl)phenyl]-2,5-diazabicyclo[2.2.1]hept-2-yl}carbonyl)octahydropentalen-2-yl]amino}-D-erythro-pentitol]: the IC50 on human CCR2B (calcium flux, human MCP-1 2 nM) was 1110 nM. Moreover, the values for the Kb on human CCR2B and on rat CCR2 were 272 nM and 158 nM, respectively.
The matching figures for `CO[C@@H]1COCC[C@@H]1N[C@@H]1C[C@H]2CCC[C@@]2(C(=O)N2C[C@@H]3C[C@H]2CN3c2nccc(C(F)(F)F)c2C)C1` (racemic) [Example 38, 1,5-anhydro-2,3-dideoxy-4-O-methyl-3-{[(2R,3aR,6aR)-3a-({(1S,4S)-5-[3-methyl-4-(trifluoromethyl)pyridin-2-yl]-2,5-diazabicyclo[2.2.1]hept-2-yl}carbonyl)octahydropentalen-2-yl]amino}-D-erythro-pentitol]: 1600 nM, 394 nM and 317 nM.
The like results for `C[C@H]1COCC[C@H]1N[C@@H]1C[C@H]2CCC[C@@]2(C(=O)N2C[C@@H]3C[C@H]2CN3c2cc(C(F)(F)F)ccn2)C1` [Example 62, [(2R,3aR,6aR)-2-{[(3R,4R)-3-methyltetrahydro-2H-pyran-4-yl]amino}hexahydropentalen-3a(1H)-yl]{(1S,4S)-5-[4-(trifluoromethyl)pyridin-2-yl]-2,5-diazabicyclo[2.2.1]hept-2-yl}methanone] were, in that order, 445 nM, 109 nM and 55 nM.
The like results for `CO[C@@H]1COCC[C@@H]1N(C)[C@@H]1C[C@H]2CCC[C@@]2(C(=O)N2C[C@@H]3C[C@H]2CN3c2cccc(Cl)c2C#N)C1` [Example 58, 1,5-anhydro-3-{[(2R,3aR,6aR)-3a-{[(1S,4S)-5-(3-chloro-2-cyanophenyl)-2,5-diazabicyclo[2.2.1]hept-2-yl]carbonyl}octahydropentalen-2-yl](methyl)amino}-2,3-dideoxy-4-O-methyl-D-erythro-pentitol] were, in that order, 2780 nM, 684 nM and 515 nM.
For the compound `CO[C@@H]1COCC[C@@H]1N[C@@H]1C[C@H]2CCC[C@@]2(C(=O)N2C[C@@H]3C[C@H]2CN3c2cccc(Cl)c2C#N)C1` [Example 44, 1,5-anhydro-3-{[(2R,3aR,6aR)-3a-{[(1S,4S)-5-(3-chloro-2-cyanophenyl)-2,5-diazabicyclo[2.2.1]hept-2-yl]carbonyl}octahydropentalen-2-yl]amino}-2,3-dideoxy-4-O-methyl-D-erythro-pentitol], the IC50 on human CCR2B (calcium flux, human MCP-1 2 nM) was found to be 1600 nM. Moreover, the Kb on human CCR2B came out at 394 nM; on rat CCR2 it was 486 nM.
The like results for `CO[C@@H]1COCC[C@@H]1N[C@@H]1C[C@H]2CCC[C@@]2(C(=O)N2C[C@@H]3C[C@H]2CN3c2cccc(C(F)(F)F)c2C#N)C1` [Example 45, 1,5-anhydro-3-{[(2R,3aR,6aR)-3a-({(1S,4S)-5-[2-cyano-3-(trifluoromethyl)phenyl]-2,5-diazabicyclo[2.2.1]hept-2-yl}carbonyl)octahydropentalen-2-yl]amino}-2,3-dideoxy-4-O-methyl-D-erythro-pentitol] were, in that order, 2200 nM, 542 nM and 532 nM.
Turning to `CO[C@@H]1COCC[C@@H]1N(C)[C@@H]1C[C@H]2CCC[C@@]2(C(=O)N2C[C@@H]3C[C@H]2CN3c2cc(C#N)cc(C(F)(F)F)c2)C1` [Example 57, 1,5-anhydro-3-{[(2R,3aR,6aR)-3a-({(1S,4S)-5-[3-cyano-5-(trifluoromethyl)phenyl]-2,5-diazabicyclo[2.2.1]hept-2-yl}carbonyl)octahydropentalen-2-yl](methyl)amino}-2,3-dideoxy-4-O-methyl-D-erythro-pentitol], at human CCR2B (calcium flux, human MCP-1 2 nM), the IC50 came out at 521 nM. Moreover, the Kb on human CCR2B turned out to be 128 nM; on rat CCR2 it was 55 nM.
The matching figures for `O=C(O)c1cccc(C2CCN([C@@H]3C[C@H]4CCC[C@@]4(C(=O)N4C[C@@H]5C[C@H]4CN5c4cc(C(F)(F)F)ccn4)C3)CC2)c1` [Example 10, 3-{1-[(2R,3aR,6aR)-3a-({(1S,4S)-5-[4-(trifluoromethyl)pyridin-2-yl]-2,5-diazabicyclo[2.2.1]hept-2-yl}carbonyl)octahydropentalen-2-yl]piperidin-4-yl}benzoic acid]: 1600 nM, 394 nM and 38 nM.
The like results for `CO[C@@H]1COCC[C@@H]1N[C@@H]1C[C@H]2CCC[C@@]2(C(=O)N2C[C@@H]3C[C@H]2CN3c2ccc(C#N)cc2C(F)(F)F)C1` [Example 37, 1,5-anhydro-3-{[(2R,3aR,6aR)-3a-({(1S,4S)-5-[4-cyano-2-(trifluoromethyl)phenyl]-2,5-diazabicyclo[2.2.1]hept-2-yl}carbonyl)octahydropentalen-2-yl]amino}-2,3-dideoxy-4-O-methyl-D-erythro-pentitol] were, in that order, 1600 nM, 393 nM and 248 nM.
The like results for `COc1ccc(N2C[C@@H]3C[C@H]2CN3C(=O)[C@@]23CCC[C@@H]2C[C@@H](N[C@H]2CCOC[C@H]2OC)C3)cc1C(F)(F)F` [Example 31, 1,5-anhydro-2,3-dideoxy-3-{[(2R,3aR,6aR)-3a-({(1S,4S)-5-[4-methoxy-3-(trifluoromethyl)phenyl]-2,5-diazabicyclo[2.2.1]hept-2-yl}carbonyl)octahydropentalen-2-yl]amino}-4-O-methyl-D-erythro-pentitol] were, in that order, 1020 nM, 250 nM and 22 nM.

For orientation: IC50 means the midpoint of a concentration-inhibition curve.
